We go through one molecule from patent US6288125A, “Treatment of hiatial hernia” (Knoll Pharmaceuticals Company, priority 2000, dated 2001).

This experiment concerns reuptake of all three monoamines. The experiment can be described thus: monoamine reuptake inhibition profile (in words, with reference to Table 1). Type of experiment: biochemical, rat. The note with it: sibutramine through its pharmacologically active metabolites 1 and 2.

For the molecule `CC(C)CC(N(C)C)C1(c2ccc(Cl)cc2)CCC1` (stereo not shown) [sibutramine, N,N-dimethyl-1-[1-(4-chlorophenyl)cyclobutyl]-3-methylbutylamine], the “monoamine reuptake inhibition / selectivity in words” value is “inhibits the reuptake of all three monoamines”.
